# Assay results: patent publication US6380134B1, “N-pyridyl herbicide compounds” (Syngenta Crop Protection, Inc., priority 1998, dated 2002)
# Several values for one entry are separate records, joined by “and”; a condition that tells them apart may be missing. Equal entries are not always repeated.
# What was measured:
# Ipomoea [1] = experiment: Herbicidal action before plant emergence (pre-emergence action); format: in vivo; design: key: 1=complete damage; 9=no effect; Score figures of 1 to 4 (in particular 1 to 3) signify a good to very good herbicidal action; conditions: 2000 g a.i./ha sprayed immediately after sowing; evaluated after 3 weeks; nine-level key (1=complete damage, 9=no effect)
# Source text: (§1) Monocotyledonous and dicotyledonous test plants are sown in standard soil in plastic pots. Immediately after sowing, the test substances are sprayed on as aqueous suspensions (prepared from a 25% strength wettable powder (Example F3, b) in accordance with WO 97/34485) or as emulsions (prepared from a 25% strength emulsion concentrate (Example F1, c) in accordance with WO 97/34485), corresponding to a dosage of 2 kg of a.i./ha (500 l of water/ha). The test plants are subsequently grown in the greenhouse under optimal conditions. After a test period of 3 weeks, the experiment is evaluated using a nine-level key (1=complete damage, 9=no effect). Score figures of 1 to 4 (in particular 1 to 3) signify a good to very good herbicidal action.
# (§2) Test plants: Lolium, Setaria, Sinapis, Solanum, Stellaria, Ipomea.
# Lolium [2] = experiment: as above; format: in vivo; design: key: 1=complete damage; 9=no effect; Score figures of 1 to 4 (in particular 1 to 3) signify a good to very good herbicidal action; conditions: 2000 g a.i./ha sprayed immediately after sowing; evaluated after 3 weeks; nine-level key (1=complete damage, 9=no effect)
# Source text: as §1, §2
# Setaria [3] = experiment: as above; format: in vivo; design: key: 1=complete damage; 9=no effect; Score figures of 1 to 4 (in particular 1 to 3) signify a good to very good herbicidal action; conditions: 2000 g a.i./ha sprayed immediately after sowing; evaluated after 3 weeks; nine-level key (1=complete damage, 9=no effect)
# Source text: as §1, §2
# Sinapis [4] = experiment: as above; format: in vivo; design: key: 1=complete damage; 9=no effect; Score figures of 1 to 4 (in particular 1 to 3) signify a good to very good herbicidal action; conditions: 2000 g a.i./ha sprayed immediately after sowing; evaluated after 3 weeks; nine-level key (1=complete damage, 9=no effect)
# Source text: as §1, §2
# Solanum [5] = experiment: as above; format: in vivo; design: key: 1=complete damage; 9=no effect; Score figures of 1 to 4 (in particular 1 to 3) signify a good to very good herbicidal action; conditions: 2000 g a.i./ha sprayed immediately after sowing; evaluated after 3 weeks; nine-level key (1=complete damage, 9=no effect)
# Source text: as §1, §2
# Stellaria [6] = experiment: as above; format: in vivo; design: key: 1=complete damage; 9=no effect; Score figures of 1 to 4 (in particular 1 to 3) signify a good to very good herbicidal action; conditions: 2000 g a.i./ha sprayed immediately after sowing; evaluated after 3 weeks; nine-level key (1=complete damage, 9=no effect)
# Source text: as §1, §2
# Ipomoea [7] = experiment: Post-emergence herbicidal action; format: in vivo; design: key: 1=complete damage; 9=no effect; Score figures of 1 to 4 (in particular 1 to 3) signify a good to very good herbicidal action; conditions: dose 2000 g a.i./ha; sprayed at 4- to 6-leaf stage; evaluated after approximately 18 days; nine-level key (1=complete damage, 9=no effect)
# Experimental: (§3) Monocotyledonous and dicotyledonous test plants are grown in the greenhouse in plastic pots containing standard soil and, in the 4- to 6-leaf stage, sprayed with an aqueous suspension of the test substances of the formula I, prepared from a 25% strength wettable powder (Example F3, b) in accordance with WO 97/34485) or with an emulsion of the test substances of the formula I, prepared from a 25% strength emulsion concentrate (Example F1, c) in accordance with WO 97/34485), corresponding to a dosage of 2 kg/ a.i./ha (500 l of water/ha). The test plants are subsequently grown on in the greenhouse under optimal conditions. After a test period of approximately 18 days, the experiment is evaluated using a nine-level key (1=complete damage, 9=no effect). Score figures of 1 to 4 (in particular 1 to 3) signify a good to very good herbicidal action.
# as §2
# Lolium [8] = experiment: Post-emergence herbicidal action; format: in vivo; design: key: 1=complete damage; 9=no effect; Score figures of 1 to 4 (in particular 1 to 3) signify a good to very good herbicidal action; conditions: dose 2000 g a.i./ha; sprayed at 4- to 6-leaf stage; evaluated after approximately 18 days; nine-level key (1=complete damage, 9=no effect)
# Experimental: as §3, §2
# Setaria [9] = experiment: Post-emergence herbicidal action; format: in vivo; design: key: 1=complete damage; 9=no effect; Score figures of 1 to 4 (in particular 1 to 3) signify a good to very good herbicidal action; conditions: dose 2000 g a.i./ha; sprayed at 4- to 6-leaf stage; evaluated after approximately 18 days; nine-level key (1=complete damage, 9=no effect)
# Experimental: as §3, §2
# Sinapis [10] = experiment: Post-emergence herbicidal action; format: in vivo; design: key: 1=complete damage; 9=no effect; Score figures of 1 to 4 (in particular 1 to 3) signify a good to very good herbicidal action; conditions: dose 2000 g a.i./ha; sprayed at 4- to 6-leaf stage; evaluated after approximately 18 days; nine-level key (1=complete damage, 9=no effect)
# Experimental: as §3, §2
# Solanum [11] = experiment: Post-emergence herbicidal action; format: in vivo; design: key: 1=complete damage; 9=no effect; Score figures of 1 to 4 (in particular 1 to 3) signify a good to very good herbicidal action; conditions: dose 2000 g a.i./ha; sprayed at 4- to 6-leaf stage; evaluated after approximately 18 days; nine-level key (1=complete damage, 9=no effect)
# Experimental: as §3, §2
# Stellaria [12] = experiment: Post-emergence herbicidal action; format: in vivo; design: key: 1=complete damage; 9=no effect; Score figures of 1 to 4 (in particular 1 to 3) signify a good to very good herbicidal action; conditions: dose 2000 g a.i./ha; sprayed at 4- to 6-leaf stage; evaluated after approximately 18 days; nine-level key (1=complete damage, 9=no effect)
# Experimental: as §3, §2
SMILES,"Pre-emergence action, score, test plant Ipomoea (Ipomoea [1])","Pre-emergence action, score, test plant Lolium (Lolium [2])","Pre-emergence action, score, test plant Setaria (Setaria [3])","Pre-emergence action, score, test plant Sinapis (Sinapis [4])","Pre-emergence action, score, test plant Solanum (Solanum [5])","Pre-emergence action, score, test plant Stellaria (Stellaria [6])","Post-emergence action, score, Ipomoea (Ipomoea [7])","Post-emergence action, score, Lolium (Lolium [8])","Post-emergence action, score, Setaria (Setaria [9])","Post-emergence action, score, Sinapis (Sinapis [10])","Post-emergence action, score, Solanum (Solanum [11])","Post-emergence action, score, Stellaria (Stellaria [12])",melting point
Cn1c(C(F)(F)F)cc(=O)n(-c2nc(Cl)c(Cl)cc2F)c1=O [1.396],1,1,1,1,1,1,1,3,3,1,1,3,
"N#Cc1cc(F)c(N2C(=O)C3CCCCN3C2=O)nc1Cl (stereo not drawn) [Example H8, 2-(3-fluoro-6-chloro-5-cyano-2-pyridyl)tetrahydroimidazo[1,5-a]pyridine-1,3-dione]",,,,,,,,,,,,,192 to 193 °C
Cn1c(C(F)(F)F)cc(=O)n(-c2nc(OCC#N)c(Cl)cc2F)c1=O [1.363],7,3,1,2,1,1,1,1,1,1,1,1,
CCOC(=O)COc1nc(-n2c(=O)cc(C(F)(F)F)n(C)c2=O)c(F)cc1Cl [1.047],1,5,1,1,1,7,1,3,1,1,1,4,
CCCOc1nc(-n2c(=O)cc(C(F)(F)F)n(C)c2=O)c(F)cc1Cl [1.367],1,1,1,1,1,1,1,1,1,1,1,1,
CCOc1nc(-n2c(=O)cc(C(F)(F)F)n(C)c2=O)c(F)cc1Cl [1.017],1,1,1,1,1,1,1,1,1,1,1,1,
COc1nc(-n2c(=O)cc(C(F)(F)F)n(C)c2=O)c(F)cc1Cl [1.016],1,1,1,1,1,1,1,1,1,1,1,1,
"C#CCOc1nc(-n2c(=O)cc(C(F)(F)F)n(C)c2=O)c(F)cc1Cl [1.022, 1-(2-propargyloxy-3-chloro-5-fluoropyridine-6-yl)-3-methyl-4-trifluoromethylpyrimidine-2,6-dione]",1,1,1,1,1,1,1,1,1,1,1,1,121 to 122 °C and 119 to 121 °C
"Cn1c(C(F)(F)F)cc(=O)n(-c2nc(O)c(Cl)cc2F)c1=O [1.002, 1-(2-hydroxy-3-chloro-5-fluoropyridine-6-yl)-3-methyl-4-trifluoromethylpyrimidine-2,6-dione]",1,7,1,1,1,5,1,6,5,2,1,5,200 to 202 °C
